Experimental data published in patent publication US9458101B2 (priority 2009, dated 2016).

Experiments:
[1] = system: MCF-7 (Human mammary gland adenocarcinoma); assay: Cytotoxicity testing (MTS) on MCF-7; format: cell-based
Experimental: (§1) Cell lines used were A549 (Human lung carcinoma), HeLa (Human cervical carcinoma), MCF-7 (Human mammary gland adenocarcinoma), CEM (Human T-lymphoblastoid from ALL (Acute lymphoblastic leukemia)), M010B (Human glioma), M006X (Human glioma) and Jurkat (Human T-cell leukemia).
(§2) A series of dilutions were prepared and a wavelength scan of the diluted solution was used to determine the wavelength of maximum absorbance for each compound. Five standardized drug concentrations were scanned at this pre-determined wavelength to obtain an estimate of the compound's extinction coefficient.
(§3) A primary MTS assay was used to test the optimal number of cells for cytotoxicity assays. Cells were trypsinized, counted and introduced into seven lanes of a 96-well plate at different cell numbers (eight replicates per lane). Optimal cell numbers were determined after 72 and 96 hours of growth and were used in subsequent cytotoxicity assays. […] Cell viability was determined using the Cell Titer 96 AQueous One Solution Cell Proliferation Assay (Promega, U.S.A.).
(§4) Fits were performed using a dose-response model ideal for data showing an initial response plateau, a transition region, and a final response plateau.
(§5) [formula] […] Itop is the response obtained at very low/no drug concentration. The data and all parameters were normalized to Itop−Ibot, a measure of the maximum effect of the drug.

[2] = system: CEM (Human T-lymphoblastoid from ALL); assay: Cytotoxicity testing (MTS) on CEM; format: cell-based
Experimental: as §1, §2, §3, §4, §5

[3] = system: A549, HeLa, MCF-7 and CEM cell lines; assay: Cytotoxicity, mean over A549, HeLa, MCF-7 and CEM cell lines; conditions: for IC50 [log10 M] (mean logIC50): mean over A549, HeLa, MCF-7 and CEM cell lines; for cytotoxicity compared with colchicine: cytotoxicity assays
Description: as §1, §3, §5
Cytotoxicity screening was performed on a number of cell lines based on the cancer of origin and differing morphologies.

M010B (Human glioma) = assay: Cytotoxicity testing (MTS) on M010B; format: cell-based
Experimental: as §1, §2, §3, §4, §5

[4] = system: HeLa (Human cervical carcinoma); assay: Cytotoxicity testing (MTS) on HeLa; format: cell-based
Experimental: as §1, §2, §3, §4, §5

M006X (Human glioma) = assay: Cytotoxicity testing (MTS) on M006X; format: cell-based
Experimental: as §1, §2, §3, §4, §5

[5] = system: A549 (Human lung carcinoma); assay: Cytotoxicity testing (MTS) on A549; format: cell-based
Experimental: as §1, §2, §3, §4, §5

Row | Compound | logIC50 [1] | logIC50 [2] | IC50 [log10 M] (mean logIC50) [3] | logIC50 (M010B (Human glioma)) | logIC50 [4] | logIC50 (M006X (Human glioma)) | logIC50 [5] | Fraction of cells that survive at the highest drug concentrations (Ibot) [1] | Fraction of cells that survive at the highest drug concentrations (Ibot) [2] | Fraction of cells that survive at the highest drug concentrations (Ibot) (M010B (Human glioma)) | Fraction of cells that survive at the highest drug concentrations (Ibot) [4] | Fraction of cells that survive at the highest drug concentrations (Ibot) (M006X (Human glioma)) | Fraction of cells that survive at the highest drug concentrations (Ibot) [5] | cytotoxicity compared with colchicine [3]
1 | N-[(7S)-2,3,10-trimethoxy-9-oxo-1-(((3-methoxy)propan)oxy)(3-methoxy))-5,6,7,9-tetrahydrobenzo[α]heptalen-7-yl]acetamide [Compound 11] | −7.05 ± 0.04 log10 M | −7.45 ± 0.09 log10 M | −7.05 ± 0.09 log10 M | −6.74 ± 0.08 log10 M | −7.23 ± 0.09 log10 M | −7.40 ± 0.09 log10 M | −6.47 ± 0.12 log10 M |  |  |  |  |  |  | 
2 | COc1cc2c(c(OC(=O)C(C)C)c1OC)-c1ccc(OC)c(=O)cc1[C@@H](NC(C)=O)CC2 [Compound 5, N-[(7S)-1-(((methyl)ethyl)carbonyloxy)-2,3,10-trimethoxy-9-oxo-5,6,7,9-tetrahydrobenzo [α]heptalen-7-yl]acetamide] | −5.25 ± 0.08 log10 M | −5.51 ± 0.13 log10 M | −5.33 ± 0.10 log10 M | −5.22 ± 0.06 log10 M | −5.46 ± 0.13 log10 M | −6.12 ± 0.04 log10 M | −5.09 ± 0.06 log10 M | 0.451 ± 0.025 | −0.003 ± 0.048 | 0.258 ± 0.024 | 0.025 ± 0.044 | 0.031 ± 0.018 | 0.265 ± 0.043 | 
3 | C=CCOc1c(OC)c(OC)cc2c1-c1ccc(OC)c(=O)cc1[C@@H](NC(C)=O)CC2 [Compound 9] | −7.10 ± 0.05 log10 M | −7.46 ± 0.08 log10 M | −7.15 ± 0.08 log10 M | −6.74 ± 0.08 log10 M | −7.35 ± 0.09 log10 M | −7.47 ± 0.09 log10 M | −6.66 ± 0.10 log10 M | 0.484 ± 0.009 | −0.004 ± 0.015 | 0.299 ± 0.017 | 0.082 ± 0.018 | 0.037 ± 0.015 | 0.227 ± 0.021 | moderately better than colchicine
4 | CCCOc1c(OC)c(OC)cc2c1-c1ccc(OC)c(=O)cc1[C@@H](NC(C)=O)CC2 [Compound 8, N-[(7S)-2,3,10-trimethoxy-9-oxo-1-(propanoxy)-5,6,7,9-tetrahydrobenzo[α]heptalen-7-yl]acetamide] | −7.50 ± 0.12 log10 M | −8.48 ± 0.10 log10 M | −7.86 ± 0.10 log10 M | −7.49 ± 0.13 log10 M | −7.68 ± 0.09 log10 M | −7.98 ± 0.03 log10 M | −7.80 ± 0.07 log10 M | 0.433 ± 0.013 | 0.000 ± 0.013 | 0.181 ± 0.020 | 0.044 ± 0.020 | 0.072 ± 0.014 | 0.246 ± 0.013 | moderately better than colchicine
5 | N-[(7S)-2,3,10-trimethoxy-1-((methyl)cyclohexane)-9-oxo-5,6,7,9-tetrahydrobenzo[α]heptalen-7-yl]acetamide [Compound 16] | −5.22 ± 0.08 log10 M | −5.53 ± 0.10 log10 M | −5.26 ± 0.09 log10 M | −5.20 ± 0.08 log10 M | −5.33 ± 0.11 log10 M | −5.44 ± 0.12 log10 M | −4.95 ± 0.07 log10 M |  |  |  |  |  |  | 
